“Also recorded” adds a separate entry of the source.
Legend:
RSV [1] = system: RSV
in vitro [2] = settings: Bos taurus (cattle)
CVB-5 = assay: microbe, parasite or virus in culture; format: cell-based, Coxsackievirus B5; settings: Enterovirus B, Vero 76, read-out: CVB-5 EC50
YFV [3] = system: YFV
BVDV [4] = assay: microbe, parasite or virus in culture; settings: Bovine viral diarrhea virus isolates and strains, MDBK, read-out: BVDV EC50
in vitro [5] = settings: human
VSV = assay: microbe, parasite or virus in culture; format: cell-based; settings: Vesicular stomatitis virus, Vero 76, read-out: VSV EC50
RSV [6] = assay: microbe, parasite or virus in culture; settings: human respiratory syncytial virus, Vero 76, read-out: RSV EC50
HIV-1 = assay: microbe, parasite or virus in culture; settings: Human immunodeficiency virus 1, MT4, read-out: HIV-1 EC50
Sb-1 = assay: microbe, parasite or virus in culture; format: cell-based, Poliovirus type-1, Sabin strain; settings: Enterovirus C, Vero 76, read-out: Sb-1 EC50
BVDV [7] = system: BVDV
VV = assay: microbe, parasite or virus in culture; format: cell-based; settings: Orthopoxvirus vaccinia, Vero 76, read-out: VV EC50
YFV [8] = format: cell-based, Yellow Fever Virus
in vitro [9] = settings: Mesocricetus auratus (hamster)
YFV [10] = assay: microbe, parasite or virus in culture; settings: Yellow fever virus, BHK, read-out: YFV EC50
in vitro [11] = settings: Cercopithecus aethiops (monkey), Vero76 CC50
HSV-1 = assay: microbe, parasite or virus in culture; format: cell-based, human herpesvirus 1; settings: Human alphaherpesvirus 1, Vero 76, read-out: HSV-1 EC50
WNV [12] = assay: microbe, parasite or virus in culture; settings: West Nile virus, BHK, read-out: WNV EC50
WNV [13] = system: WNV
DENV-2 [14] = system: DENV-2
DENV-2 [15] = assay: microbe, parasite or virus in culture; settings: Dengue virus, DENV2, BHK, read-out: DENV-2 EC50
Reo-1 = format: cell-based, reovirus type-1

## O=S(=O)(c1ccccc1)n1cc(CNc2ccccc2)c(-c2ccc(Br)cc2)n1 [7e, N-[(3-(4-Bromophenyl)-1-(phenylsulfonyl)-1H-pyrazol-4-yl)methyl]aniline]
RSV [1]
  SI CC50/EC50 (RSV): 4.9
In vitro [2]
  CC50: > 100 µM
CVB-5
  EC50: > 87 µM
YFV [3]
  SI CC50/EC50 (YFV): >27.8
BVDV [4]
  EC50: 19.5 ± 2.1 µM
In vitro [5]
  CC50: > 100 µM
VSV
  EC50: > 87 µM
RSV [6]
  EC50: 17.8 ± 1.8 µM
other
  melting point: 110 to 111 °C
HIV-1
  EC50: 20 ± 2.4 µM
Sb-1
  EC50: > 87 µM
BVDV [7]
  SI CC50/EC50 (BVDV): >5.1
VV
  EC50: > 87 µM
YFV [8]
  Effect on YFV titer, compound added post infection: achieved the highest reduction of virus titer when added 2 h post infection and maintained up to 4 h post infection; also recorded: retained its inhibitory activity when added at any time p.i; also recorded: highest reduction of virus yield was observed when 7e was added 2 h post infection and maintained up to 4 h post infection
  Effect on YFV titer, compound present in pre-treatment or during infection: reduced the YFV titer when present in the pre-treatment or during the 2 h of infection
In vitro [9]
  CC50: > 100 µM
YFV [10]
  EC50: 3.6 ± 0.8 µM
In vitro [11]
  CC50: 87 ± 1 µM
HSV-1
  EC50: > 87 µM

## C[C@@]1(O)[C@H](O)[C@@H](CO)O[C@H]1n1cnc2c(=O)[nH]c(N)nc21 [NM 108, 2′-C-methylguanosin, reference compound]
WNV [12]
  EC50: 0.7 ± 0.2 µM
WNV [13]
  SI CC50/EC50 (WNV): 85.7
In vitro [9]
  CC50: 60 ± 3 µM
DENV-2 [14]
  SI CC50/EC50 (DENV-2): 50.0
DENV-2 [15]
  EC50: 1.2 ± 0.1 µM

## Clc1ccc(NCc2cn(-c3ccccc3)nc2-c2ccc(Cl)cc2)cc1 [1i]
WNV [12]
  EC50: 57.5 ± 0.5 µM
WNV [13]
  SI CC50/EC50 (WNV): 1.3
In vitro [9]
  CC50: 73 ± 1 µM
DENV-2 [14]
  SI CC50/EC50 (DENV-2): 5.0
DENV-2 [15]
  EC50: 14.5 ± 3.5 µM

## C[C@@]1(O)[C@H](O)[C@@H](CO)O[C@H]1n1ccc(N)nc1=O [NM107, 2′-C-methylcitidine]
BHK-21 cells
  CC50: > 100 µM
Reo-1
  EC50: 7.5 ± 1.5 µM

## Brc1ccc(NCc2cn(-c3ccccc3)nc2-c2ccc(Br)cc2)cc1 [1g]
WNV [12]
  EC50: 80 ± 8.5 µM
WNV [13]
  SI CC50/EC50 (WNV): >1.25
In vitro [9]
  CC50: > 100 µM
DENV-2 [14]
  SI CC50/EC50 (DENV-2): >4.3
DENV-2 [15]
  EC50: 23 ± 6 µM

## Cc1ccc(NCc2cn(-c3ccccc3)nc2-c2ccc(C(F)(F)F)cc2)cc1 [1o]
WNV [12]
  EC50: 59 ± 1.1 µM
WNV [13]
  SI CC50/EC50 (WNV): 1.5
In vitro [9]
  CC50: 88 ± 0.5 µM
DENV-2 [14]
  SI CC50/EC50 (DENV-2): 6.2
DENV-2 [15]
  EC50: 14.3 ± 0.7 µM

## Cc1ccc(NCc2cn(-c3ccccc3)nc2-c2ccc(Cl)cc2)cc1 [1n]
WNV [12]
  EC50: 39 ± 1 µM
WNV [13]
  SI CC50/EC50 (WNV): >2.6
In vitro [9]
  CC50: > 100 µM
DENV-2 [14]
  SI CC50/EC50 (DENV-2): >9.0
DENV-2 [15]
  EC50: 11.1 ± 1.6 µM

## O=S(=O)(c1ccccc1)n1cc(CNc2ccc(Br)cc2)c(-c2ccc(Br)cc2)n1 [7g, 4-Bromo-N-[(3-(4-bromophenyl)-1-(phenylsulfonyl)-1H-pyrazol-4-yl)methyl]aniline]
RSV [1]
  SI CC50/EC50 (RSV): 5.7
In vitro [2]
  CC50: > 100 µM
CVB-5
  EC50: > 90 µM
YFV [3]
  SI CC50/EC50 (YFV): >16.1
In vitro [5]
  CC50: > 100 µM
VSV
  EC50: > 90 µM
RSV [6]
  EC50: 15.8 ± 2 µM
other
  melting point: 150 to 151 °C
Sb-1
  EC50: > 90 µM
VV
  EC50: > 90 µM
In vitro [9]
  CC50: > 100 µM
YFV [10]
  EC50: 6.2 ± 0.5 µM
In vitro [11]
  CC50: 90 ± 1 µM
HSV-1
  EC50: > 90 µM

## O=c1cnn([C@@H]2O[C@H](CO)[C@@H](O)[C@H]2O)c(=O)[nH]1 [6-Azauridine, reference compound]
RSV [1]
  SI CC50/EC50 (RSV): 7.2
RSV [6]
  EC50: 1.3 ± 0.3 µM
YFV [8]
  Effect on YFV titer, compound added post infection: lost its effectiveness when added after the infection
  Effect on YFV titer, compound present in pre-treatment or during infection: reduced the YFV titer when present in the pre-treatment or during the 2 h of infection
In vitro [9]
  CC50: > 100 µM
YFV [10]
  EC50: 46 ± 1.5 µM
In vitro [11]
  CC50: 9.3 ± 1.6 µM

## O=S(=O)(c1ccccc1)n1cc(CNc2ccc(Br)cc2)c(-c2ccccc2)n1 [7c, 4-Bromo-N-[(3-phenyl-1-(phenylsulfonyl)-1H-pyrazol-4-yl)methyl]aniline]
In vitro [2]
  CC50: > 100 µM
CVB-5
  EC50: 24 ± 11 µM
YFV [3]
  SI CC50/EC50 (YFV): >16.9
In vitro [5]
  CC50: 20 µM
VSV
  EC50: > 85 µM
RSV [6]
  EC50: > 3 µM
other
  melting point: 122 °C
HIV-1
  EC50: > 20 µM
Sb-1
  EC50: > 85 µM
VV
  EC50: > 85 µM
In vitro [9]
  CC50: > 100 µM
YFV [10]
  EC50: 5.9 ± 0.2 µM
HSV-1
  EC50: > 85 µM
